Results published in patent US11865134B2, “Treatment of inflammation with glucocorticoids and angiopoietin-like 7 (ANGPTL7) inhibitors” (Regeneron Pharmaceuticals, Inc., priority 2021, dated 2024).

Key:
Format in all cases: in vivo
ANGPTL7 = ANGPTL7 siRNA in DEX-Ac-induced ocular hypertension (steroid-induced IOP) in wild-type mice; details: WT mice; weekly periocular CF injections of DEX-Ac to both eyes; compared with vehicle-treated mice; starting 6-days post-injection
Source text: dsRNA were further assessed for their ability to reduce steroid induced IOP in vivo in wild-type mice. […] Mice were divided into following groups as shown in FIG. 4: a) Vehicle (n=4), b) Vehicle+PBS (n=6), c) DEX-Ac (n=12), d) DEX-Ac+siRNA #3 (n=14), and e) DEX-Ac+siRNA #5 (n=14). […] At Day 22, siRNA targeting ANGPTL7 (#3 and #5) were intravitreally injected into groups: d and e (DEX-Ac+siRNA #3 and DEX-Ac+siRNA #5) and IOP measurements continued to be recorded.

ANGPTL7 KO mice = assay: DEX-Ac-induced ocular hypertension in ANGPTL7 KO mice (IOP measurement); details: weekly periocular CF injections of DEX-Ac in both eyes, versus vehicle-treated, week 1 to week 6
Source text: (§1) IOP measurements of DEX-Ac-treated (n=18) versus vehicle-treated (n=6) mice show IOP elevation from week 1 to 6; **p<0.01, ***p<0.001, ****p<0.0001.

ANGPTL7 WT mice = assay: DEX-Ac-induced ocular hypertension in ANGPTL7 WT mice (IOP measurement); details: weekly periocular CF injections of DEX-Ac in both eyes, versus vehicle-treated, week 1 to 6
Source text: as §1

IOP elevation (ANGPTL7): rapid and significantly higher
IOP elevation (ANGPTL7 KO mice): did not elevate IOP
IOP elevation (ANGPTL7 WT mice): significantly elevated IOP
SMILES: CC(=O)OCC(=O)[C@@]1(O)[C@H](C)C[C@H]2[C@@H]3CCC4=CC(=O)C=C[C@]4(C)[C@@]3(F)[C@@H](O)C[C@@]21C [DEX-Ac, dexamethasone-21-acetate]
